Key:
Experiment in all cases: relative viability (nuclei count vs DMSO), 5 days (fraction); higher = more cells survive
[1] = system: EMC-BAC-2
Summary of the method: (§1)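 Lung cancer cell lines were pin-tool dosed in 1536-well plates on the day after seeding, with either a lone drug or a fixed anchor-drug dose plus five library-drug doses (not always all listed) in √10 steps. Nuclei were counted on 4× images after 5 days. Relative viability is the ratio of treated-well to vehicle-well nuclei counts, with each value a median of duplicate plates.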

[2] = system: LCLC-97TM1
Summary of the method: as §1

[3] = system: NCI-H1355
Summary of the method: as §1

[4] = system: NCI-H1666
Summary of the method: as §1

[5] = system: NCI-H1755
Summary of the method: as §1

[6] = system: NCI-H1793
Summary of the method: as §1

[7] = system: NCI-H1944
Summary of the method: as §1

[8] = system: NCI-H1975
Summary of the method: as §1

[9] = system: NCI-H1993
Summary of the method: as §1

[10] = system: NCI-H2009
Summary of the method: as §1

[11] = system: NCI-H2126
Summary of the method: as §1

[12] = system: NCI-H2170
Summary of the method: as §1

[13] = system: NCI-H2347
Summary of the method: as §1

[14] = system: NCI-H441
Summary of the method: as §1

[15] = system: NCI-H460
Summary of the method: as §1

[16] = system: NCI-H520
Summary of the method: as §1

[17] = system: NCI-H647
Summary of the method: as §1

[18] = system: NCI-H727
Summary of the method: as §1

[19] = system: PC-14
Summary of the method: as §1

[20] = system: PC-3 [JPC-3]
Summary of the method: as §1

[21] = system: SK-LU-1
Summary of the method: as §1

[22] = system: SW 1573
Summary of the method: as §1

## Cc1cnc(-c2cnc(NCCNc3ccc(C#N)cn3)nc2-c2ccc(Cl)cc2Cl)[nH]1 + CC(=O)Nc1cccc(-n2c(=O)n(C3CC3)c(=O)c3c(Nc4ccc(I)cc4F)n(C)c(=O)c(C)c32)c1 [Trametinib] (partner 0.02 µM)
[1]; first compound 0.08 µM
  relative viability: 1.06
[1]; first compound 0.253 µM
  relative viability: 0.976
[1]; first compound 0.8 µM
  relative viability: 0.853
[1]; first compound 2.53 µM
  relative viability: 0.887
[2]; first compound 0.08 µM
  relative viability: 0.201
[2]; first compound 0.253 µM
  relative viability: 0.193
[2]; first compound 0.8 µM
  relative viability: 0.18
[2]; first compound 2.53 µM
  relative viability: 0.214
[3]; first compound 0.08 µM
  relative viability: 0.396
[3]; first compound 0.253 µM
  relative viability: 0.384
[3]; first compound 0.8 µM
  relative viability: 0.41
[3]; first compound 2.53 µM
  relative viability: 0.409
[4]; first compound 0.08 µM
  relative viability: 0.864
[4]; first compound 0.253 µM
  relative viability: 0.797
[4]; first compound 0.8 µM
  relative viability: 0.957
[4]; first compound 2.53 µM
  relative viability: 0.821
[5]; first compound 0.08 µM
  relative viability: 0.865
[5]; first compound 0.253 µM
  relative viability: 0.755
[5]; first compound 0.8 µM
  relative viability: 0.771
[5]; first compound 2.53 µM
  relative viability: 0.771
[6]; first compound 0.08 µM
  relative viability: 0.462
[6]; first compound 0.253 µM
  relative viability: 0.45
[6]; first compound 0.8 µM
  relative viability: 0.422
[6]; first compound 2.53 µM
  relative viability: 0.403
[7]; first compound 0.08 µM
  relative viability: 0.423
[7]; first compound 0.8 µM
  relative viability: 0.463
[7]; first compound 2.53 µM
  relative viability: 0.371
[8]; first compound 0.08 µM
  relative viability: 0.35
[8]; first compound 0.253 µM
  relative viability: 0.383
[8]; first compound 0.8 µM
  relative viability: 0.353
[8]; first compound 2.53 µM
  relative viability: 0.339
[9]; first compound 0.08 µM
  relative viability: 0.506
[9]; first compound 0.253 µM
  relative viability: 0.536
[9]; first compound 0.8 µM
  relative viability: 0.454
[9]; first compound 2.53 µM
  relative viability: 0.52
[10]; first compound 0.08 µM
  relative viability: 0.372
[10]; first compound 0.253 µM
  relative viability: 0.273
[10]; first compound 0.8 µM
  relative viability: 0.293
[10]; first compound 2.53 µM
  relative viability: 0.384
[11]; first compound 0.08 µM
  relative viability: 0.58
[11]; first compound 0.253 µM
  relative viability: 0.546
[11]; first compound 0.8 µM
  relative viability: 0.564
[11]; first compound 2.53 µM
  relative viability: 0.546
[12]; first compound 0.08 µM
  relative viability: 1.02
[12]; first compound 0.8 µM
  relative viability: 0.929
[12]; first compound 2.53 µM
  relative viability: 0.788
[13]; first compound 0.08 µM
  relative viability: 0.296
[13]; first compound 0.253 µM
  relative viability: 0.272
[13]; first compound 0.8 µM
  relative viability: 0.297
[13]; first compound 2.53 µM
  relative viability: 0.287
[14]; first compound 0.08 µM
  relative viability: 0.561
[14]; first compound 0.8 µM
  relative viability: 0.443
[14]; first compound 2.53 µM
  relative viability: 0.372
[15]; first compound 0.08 µM
  relative viability: 0.225
[15]; first compound 0.253 µM
  relative viability: 0.121
[15]; first compound 0.8 µM
  relative viability: 0.107
[15]; first compound 2.53 µM
  relative viability: 0.195
[16]; first compound 0.08 µM
  relative viability: 0.781
[16]; first compound 0.253 µM
  relative viability: 0.614
[16]; first compound 0.8 µM
  relative viability: 0.788
[16]; first compound 2.53 µM
  relative viability: 0.706
[17]; first compound 0.08 µM
  relative viability: 0.606
[17]; first compound 0.253 µM
  relative viability: 0.401
[17]; first compound 0.8 µM
  relative viability: 0.498
[17]; first compound 2.53 µM
  relative viability: 0.601
[18]; first compound 0.08 µM
  relative viability: 0.384
[18]; first compound 0.253 µM
  relative viability: 0.375
[18]; first compound 0.8 µM
  relative viability: 0.404
[18]; first compound 2.53 µM
  relative viability: 0.393
[19]; first compound 0.08 µM
  relative viability: 0.961
[19]; first compound 0.253 µM
  relative viability: 0.713
[19]; first compound 0.8 µM
  relative viability: 0.904
[19]; first compound 2.53 µM
  relative viability: 0.825
[20]; first compound 0.08 µM
  relative viability: 0.75
[20]; first compound 0.253 µM
  relative viability: 0.646
[20]; first compound 0.8 µM
  relative viability: 0.774
[20]; first compound 2.53 µM
  relative viability: 0.703
[21]; first compound 0.08 µM
  relative viability: 0.489
[21]; first compound 0.253 µM
  relative viability: 0.61
[21]; first compound 0.8 µM
  relative viability: 0.563
[21]; first compound 2.53 µM
  relative viability: 0.707
[22]; first compound 0.08 µM
  relative viability: 0.718
[22]; first compound 0.253 µM
  relative viability: 0.537
[22]; first compound 0.8 µM
  relative viability: 0.575
[22]; first compound 2.53 µM
  relative viability: 0.337

## O=c1[nH]c2ccccc2n1C1CCN(CCCC(c2ccc(F)cc2)c2ccc(F)cc2)CC1 [Pimozide] + CC(=O)Nc1cccc(-n2c(=O)n(C3CC3)c(=O)c3c(Nc4ccc(I)cc4F)n(C)c(=O)c(C)c32)c1 [Trametinib] (partner 0.02 µM)
[1]; first compound 0.08 µM
  relative viability: 0.814
[1]; first compound 0.253 µM
  relative viability: 0.891
[1]; first compound 0.8 µM
  relative viability: 0.792
[1]; first compound 2.53 µM
  relative viability: 0.815
[1]; first compound 8 µM
  relative viability: 0.802
[2]; first compound 0.08 µM
  relative viability: 0.191
[2]; first compound 0.253 µM
  relative viability: 0.189
[2]; first compound 0.8 µM
  relative viability: 0.166
[2]; first compound 2.53 µM
  relative viability: 0.185
[2]; first compound 8 µM
  relative viability: 0.207
[3]; first compound 0.08 µM
  relative viability: 0.382
[3]; first compound 0.253 µM
  relative viability: 0.428
[3]; first compound 0.8 µM
  relative viability: 0.411
[3]; first compound 2.53 µM
  relative viability: 0.39
[3]; first compound 8 µM
  relative viability: 0.454
[4]; first compound 0.08 µM
  relative viability: 0.888
[4]; first compound 0.253 µM
  relative viability: 0.804
[4]; first compound 0.8 µM
  relative viability: 0.835
[4]; first compound 2.53 µM
  relative viability: 0.866
[4]; first compound 8 µM
  relative viability: 0.787
[5]; first compound 0.08 µM
  relative viability: 0.748
[5]; first compound 0.253 µM
  relative viability: 0.766
[5]; first compound 0.8 µM
  relative viability: 0.736
[5]; first compound 2.53 µM
  relative viability: 0.761
[5]; first compound 8 µM
  relative viability: 0.712
[6]; first compound 0.08 µM
  relative viability: 0.478
[6]; first compound 0.253 µM
  relative viability: 0.391
[6]; first compound 0.8 µM
  relative viability: 0.391
[6]; first compound 2.53 µM
  relative viability: 0.44
[6]; first compound 8 µM
  relative viability: 0.515
[7]; first compound 0.08 µM
  relative viability: 0.396
[7]; first compound 2.53 µM
  relative viability: 0.346
[7]; first compound 8 µM
  relative viability: 0.409
[8]; first compound 0.08 µM
  relative viability: 0.273
[8]; first compound 0.253 µM
  relative viability: 0.405
[8]; first compound 0.8 µM
  relative viability: 0.363
[8]; first compound 2.53 µM
  relative viability: 0.353
[8]; first compound 8 µM
  relative viability: 0.227
[9]; first compound 0.08 µM
  relative viability: 0.561
[9]; first compound 0.253 µM
  relative viability: 0.495
[9]; first compound 0.8 µM
  relative viability: 0.596
[9]; first compound 2.53 µM
  relative viability: 0.484
[9]; first compound 8 µM
  relative viability: 0.553
[10]; first compound 0.08 µM
  relative viability: 0.256
[10]; first compound 0.253 µM
  relative viability: 0.276
[10]; first compound 0.8 µM
  relative viability: 0.284
[10]; first compound 2.53 µM
  relative viability: 0.321
[10]; first compound 8 µM
  relative viability: 0.225
[11]; first compound 0.08 µM
  relative viability: 0.589
[11]; first compound 0.253 µM
  relative viability: 0.584
[11]; first compound 0.8 µM
  relative viability: 0.566
[11]; first compound 2.53 µM
  relative viability: 0.592
[11]; first compound 8 µM
  relative viability: 0.533
[12]; first compound 0.08 µM
  relative viability: 0.943
[12]; first compound 0.253 µM
  relative viability: 0.874
[12]; first compound 0.8 µM
  relative viability: 0.832
[12]; first compound 2.53 µM
  relative viability: 0.83
[12]; first compound 8 µM
  relative viability: 0.857
[13]; first compound 0.08 µM
  relative viability: 0.288
[13]; first compound 0.253 µM
  relative viability: 0.307
[13]; first compound 0.8 µM
  relative viability: 0.287
[13]; first compound 2.53 µM
  relative viability: 0.278
[13]; first compound 8 µM
  relative viability: 0.285
[14]; first compound 0.08 µM
  relative viability: 0.425
[14]; first compound 0.253 µM
  relative viability: 0.463
[14]; first compound 0.8 µM
  relative viability: 0.335
[14]; first compound 2.53 µM
  relative viability: 0.565
[14]; first compound 8 µM
  relative viability: 0.315
[15]; first compound 0.08 µM
  relative viability: 0.239
[15]; first compound 0.253 µM
  relative viability: 0.0857
[15]; first compound 0.8 µM
  relative viability: 0.131
[15]; first compound 2.53 µM
  relative viability: 0.185
[15]; first compound 8 µM
  relative viability: 0.14
[16]; first compound 0.08 µM
  relative viability: 0.632
[16]; first compound 0.253 µM
  relative viability: 0.68
[16]; first compound 0.8 µM
  relative viability: 0.627
[16]; first compound 2.53 µM
  relative viability: 0.601
[16]; first compound 8 µM
  relative viability: 0.54
[17]; first compound 0.08 µM
  relative viability: 0.555
[17]; first compound 0.253 µM
  relative viability: 0.491
[17]; first compound 0.8 µM
  relative viability: 0.476
[17]; first compound 2.53 µM
  relative viability: 0.316
[17]; first compound 8 µM
  relative viability: 0.353
[18]; first compound 0.08 µM
  relative viability: 0.396
[18]; first compound 0.253 µM
  relative viability: 0.426
[18]; first compound 0.8 µM
  relative viability: 0.383
[18]; first compound 2.53 µM
  relative viability: 0.443
[18]; first compound 8 µM
  relative viability: 0.403
[19]; first compound 0.253 µM
  relative viability: 0.622
[19]; first compound 0.8 µM
  relative viability: 0.686
[19]; first compound 2.53 µM
  relative viability: 0.607
[19]; first compound 8 µM
  relative viability: 0.62
[20]; first compound 0.253 µM
  relative viability: 0.683
[20]; first compound 0.8 µM
  relative viability: 0.651
[20]; first compound 2.53 µM
  relative viability: 0.656
[20]; first compound 8 µM
  relative viability: 0.607
[21]; first compound 0.08 µM
  relative viability: 0.463
[21]; first compound 0.253 µM
  relative viability: 0.472
[21]; first compound 0.8 µM
  relative viability: 0.455
[21]; first compound 2.53 µM
  relative viability: 0.404
[21]; first compound 8 µM
  relative viability: 0.352
[22]; first compound 0.08 µM
  relative viability: 0.645
[22]; first compound 0.253 µM
  relative viability: 0.448
[22]; first compound 0.8 µM
  relative viability: 0.394
[22]; first compound 2.53 µM
  relative viability: 0.308
[22]; first compound 8 µM
  relative viability: 0.344

Reference: the supplement of paper PMC10307832
